# System: reporter gene (firefly luciferase) expression in the liver
# Assay: Luciferase expression in mouse liver following tail vein injection of mRNA lipid nanoparticles
# Format: in vivo
# Details: increasing concentration of compound I-5 in the lipid nanoparticle
# Method: Lipid nanoparticles were formulated with short chain PEG lipid at various molar ratios as described in Formulation Example 1. Relative activity was determined by measuring luciferase expression in the mouse liver 4 hours following administration via tail vein injection.
# Increasing concentration of compound I-5 reduced the overall expression of the reporter gene (firefly luciferase) in the liver (see, e.g., Table 4). Lipid nanoparticle systems that included compound I-5 at a concentration of 5 mol % reduced the amount of expression by ˜50% while lipid nanoparticle systems including compound I-5 at 10 mol % reduced to 20% of benchmark (lipid nanoparticle system with no compound I-5). […] However, 2.5 mol % compound I-5 changed the expression kinetic. […] Lipid nanoparticle systems with compound I-5 at a concentration of 2.5 mol % also provided a benefit of prolonged expression since at 16 hours the same system had ˜4-fold expression in comparison to the lipid nanoparticle system with no compound I-5.
compound,measurement,value
CCCCCCCCCCCCCCN(CCCCCCCCCCCCCC)C(=O)CCC(=O)OCCOCCOCCOC [compound I-5],overall expression of the reporter gene (firefly luciferase) in the liver,reduced

# — patent US20250161227A1, “PEGYLATED LIPIDS” (Acuitas Therapeutics, Inc., priority 2023, published 2025)
